# PMC8008885 (Journal of Enzyme Inhibition and Medicinal Chemistry, 2021)
# Test system: H3K9me3 occupancy in promoter regions
# Experiment: H3K9me3-ChIP sequencing of striatal tissue of YAC128 mice
# Assay type: in vivo, mouse
# Description: ChIP for H3K9me3 binding to DNA was performed using a CHIP assay kit (Santa Cruz, Dallas, TX) as described previously[21]^,[28]. Striatal tissues from WT, vehicle treated YAC128, and APQ-treated YAC128 mice were crossed-linked with 1% formaldehyde for 20 min at room temperature. Lysates were sonicated for 30 s six times using a Bioruptor (Diagenode Inc., Denville, NJ). After centrifugation, the supernatant was diluted in CHIP dilution buffer and incubated overnight at 4 °C with anti-H3K9me3 antibody. Immune complexes were recovered by the addition of 60 µl of salmon sperm DNA/protein A agarose-50% slurry and incubation at 4 °C for 2 h with rotation. Beads were pelleted and washed with low and high salt buffer followed by LiCl buffer (x3). Immune complexes were eluted by incubation with 500 µl of fresh elution buffer (1% SDS, 0.1 M NaHCO3) and 20 µl of 5 M NaCl. DNA was cleaned by the addition of 500 mM EDTA, 1 M Tris, and proteinase K at 66 °C for 4 h. The DNA solution was extracted with a phenol/chloroform/isoamyl alcohol mixture to remove protein contaminants, followed by precipitation with 100% ethanol. After precipitation, the pellet was washed with 70% ethanol and dissolved in 20 µl DW.
# The Model-based Analysis of ChIP-Seq algorithm (MACS; v. 1.4.2) was used to identify regions of H3K9me3 enrichment with the default parameters. The peaks that pass a Poisson p values threshold of 0.1 were used for further analyses[28]^,[42]. In order to obtain reliable regions of enrichment, the regions detected in more than two samples were selected and aligned to define the consensus regions using DiffBind R package (v. 2.4.8)[43]. The reads in the consensus regions were counted and DESeq2 was applied to identify DMRs[44]. The DMRs were defined as p values of ≤.05 and only DMRs in promoter region (≤3 K from transcription start site) were selected.
# Among the read peaks, a total of H3K9me3-enriched 71735 sites were commonly detected using MACS in WT, vehicle-treated YAC128, and APQ-treated YAC128 mice (using DiffBind R package). The reads were re-counted in the 71,735 sites (using DESeq2) and the H3K9me3-enriched sites in promoter region (≤3 K), with p values ≤.01 were selected. Then the H3K9me3-enriched sites with 1.5-fold higher in vehicle-treated YAC128 compared to WT and 1.5-fold lower in vehicle-treated YAC128 compared to APQ-treated YAC128 were finally selected.
structure (smiles),measurement,setting,value
"C=CCOc1cccc2nc(N3CCCC3)ccc12 [APQ, 5-allyloxy-2-(pyrrolidin-1-yl)quinoline]",number of targets with 1.5-fold decrease of H3K9me3 occupancy,APQ-treated vs vehicle-treated YAC128 mice,7060
same,H3K9me3 occupancy in the promoter region (–1 k to –3 kb),"APQ-treated vs vehicle-treated YAC128 mice, pie graph analysis",reduced
same,Fold(YACEi/YAC) H3K9me3 ChIP occupancy,"Gripap1, Promoter (1-2kb), chrX_7787762_7788457, APQ-treated YAC vs YAC mice striatum",-2.38
same,Fold(YACEi/YAC),"H3K9me3 ChIP peak chr1_71652484_71652752, Apol7d, Promoter (<=1kb)",-3.31
same,Fold(YACEi/YAC),"H3K9me3 ChIP peak chr1_131908530_131908816, Nucks1, Promoter (1-2kb)",-4.01
same,Fold(YACEi/YAC),"H3K9me3 ChIP peak chr1_153487828_153488249, Dhx9, Promoter (<=1kb)",-2.43
same,Fold(YACEi/YAC),"H3K9me3 ChIP peak chr2_5015774_5016013, Mcm10, Promoter (2-3kb)",-3.52
same,Fold(YACEi/YAC),"H3K9me3 ChIP peak chr3_35666243_35666969, Gm6639, Promoter (<=1kb)",-3.37
same,Fold(YACEi/YAC),"H3K9me3 ChIP peak chr3_38487666_38488045, Ankrd50, Promoter (2-3kb)",-2.49
same,Fold(YACEi/YAC),"H3K9me3 ChIP peak chr3_81977204_81977533, Tdo2, Promoter (1-2kb)",-3.71
same,Fold(YACEi/YAC),"H3K9me3 ChIP peak chr3_92487863_92488097, Sprr1a, Promoter (1-2kb)",-3.63
same,Fold(YACEi/YAC),"H3K9me3 ChIP peak chr3_101112649_101113010, Ptgfrn, Promoter (2-3kb)",-3.89
same,Fold(YACEi/YAC),"H3K9me3 ChIP peak chr4_3653408_3653656, 2210414B05Rik, Promoter (2-3kb)",-3.07
same,Fold(YACEi/YAC),"H3K9me3 ChIP peak chr4_55418287_55418885, Gm12505, Promoter (<=1kb)",-2.83
same,Fold(YACEi/YAC),"H3K9me3 ChIP peak chr4_73631010_73633171, Gm11236, Promoter (2-3kb)",-3.46
same,Fold(YACEi/YAC),"H3K9me3 ChIP peak chr4_96141001_96141325, Cyp2j12, Promoter (<=1kb)",-3.49
same,Fold(YACEi/YAC),"H3K9me3 ChIP peak chr5_147954155_147954429, Mtus2, Promoter (2-3kb)",-3.24
same,Fold(YACEi/YAC),"H3K9me3 ChIP peak chr6_8194240_8194734, Col28a1, Promoter (1-2kb)",-2.03
same,Fold(YACEi/YAC),"H3K9me3 ChIP peak chr6_40902902_40903167, Prss58, Promoter (2-3kb)",-3.27
same,Fold(YACEi/YAC),"H3K9me3 ChIP peak chr6_52209895_52210445, Hoxa6, Promoter (1-2kb)",-2.02
same,Fold(YACEi/YAC),"H3K9me3 ChIP peak chr6_57158878_57159171, Vmn1r12, Promoter (<=1kb)",-3.18
same,Fold(YACEi/YAC),"H3K9me3 ChIP peak chr6_82941890_82942092, Sema4f, Promoter (2-3kb)",-3.56
same,Fold(YACEi/YAC),"H3K9me3 ChIP peak chr6_88462374_88462646, Ruvbl1, Promoter (2-3kb)",-3.04
same,Fold(YACEi/YAC),"H3K9me3 ChIP peak chr6_116583898_116584203, Olfr215, Promoter (<=1kb)",-2.33
same,Fold(YACEi/YAC),"H3K9me3 ChIP peak chr7_20869153_20870151, Vmn1r116, Promoter (2-3kb)",-3.02
same,Fold(YACEi/YAC),"H3K9me3 ChIP peak chr7_28539372_28539811, Sycn, Promoter (1-2kb)",-2.21
same,Fold(YACEi/YAC),"H3K9me3 ChIP peak chr7_30914737_30915034, Mag, Promoter (<=1kb)",-2.46
same,Fold(YACEi/YAC),"H3K9me3 ChIP peak chr7_106081077_106081480, Gm8979, Promoter (1-2kb)",-3.34
same,Fold(YACEi/YAC),"H3K9me3 ChIP peak chr7_108053741_108053948, Olfr479, Promoter (1-2kb)",-2.28
same,Fold(YACEi/YAC),"H3K9me3 ChIP peak chr7_140154755_140155139, Sprn, Promoter (<=1kb)",-2.42
same,Fold(YACEi/YAC),"H3K9me3 ChIP peak chr8_67493810_67494076, Nat2, Promoter (<=1kb)",-2.63
same,Fold(YACEi/YAC),"H3K9me3 ChIP peak chr9_39238856_39239153, Olfr1537, Promoter (<=1kb)",-2.72
same,Fold(YACEi/YAC),"H3K9me3 ChIP peak chr10_75351156_75351507, Gm5779, Promoter (<=1kb)",-3.41
same,Fold(YACEi/YAC),"H3K9me3 ChIP peak chr10_78963256_78963630, Olfr1353, Promoter (<=1kb)",-2.79
same,Fold(YACEi/YAC),"H3K9me3 ChIP peak chr10_85919134_85919418, Prdm4, Promoter (1-2kb)",-2.28
same,Fold(YACEi/YAC),"H3K9me3 ChIP peak chr10_130212472_130212863, Olfr827, Promoter (1-2kb)",-3.69
same,Fold(YACEi/YAC),"H3K9me3 ChIP peak chr11_6231887_6232152, Npc1l1, Promoter (1-2kb)",-3.31
same,Fold(YACEi/YAC),"H3K9me3 ChIP peak chr11_70351943_70352224, Alox15, Promoter (<=1kb)",-2.33
same,Fold(YACEi/YAC),"H3K9me3 ChIP peak chr14_7570803_7571731, Gm3558, Promoter (2-3kb)",-3.02
same,Fold(YACEi/YAC),"H3K9me3 ChIP peak chr14_50785599_50785931, Ttc5, Promoter (<=1kb)",-3.3
same,Fold(YACEi/YAC),"H3K9me3 ChIP peak chr14_51147689_51148262, Rnase1, Promoter (<=1kb)",-2.5
same,Fold(YACEi/YAC),"H3K9me3 ChIP peak chr14_67860151_67860425, Mir6539, Promoter (<=1kb)",-2.31
same,Fold(YACEi/YAC),"H3K9me3 ChIP peak chr14_74972279_74972456, Gm4278, Promoter (2-3kb)",-3.57
same,Fold(YACEi/YAC),"H3K9me3 ChIP peak chr16_17917614_17917958, Gsc2, Promoter (2-3kb)",-3.59
same,Fold(YACEi/YAC),"H3K9me3 ChIP peak chr17_18913933_18914613, Vmn2r97, Promoter (<=1kb)",-3.35
same,Fold(YACEi/YAC),"H3K9me3 ChIP peak chr17_33553505_33553673, Myo1f, Promoter (2-3kb)",-3.41
same,Fold(YACEi/YAC),"H3K9me3 ChIP peak chr17_37114518_37114958, Olfr92, Promoter (2-3kb)",-2.4
same,Fold(YACEi/YAC),"H3K9me3 ChIP peak chr17_37485182_37485483, H2-M2, Promoter (1-2kb)",-3.71
same,Fold(YACEi/YAC),"H3K9me3 ChIP peak chr17_47927455_47927829, Foxp4, Promoter (2-3kb)",-2.83
same,Fold(YACEi/YAC),"H3K9me3 ChIP peak chr19_24902268_24902717, Foxd4, Promoter (<=1kb)",-2.16
same,Fold(YACEi/YAC),"H3K9me3 ChIP peak chrX_5469564_5470151, Mycs, Promoter (<=1kb)",-2.41
same,Fold(YACEi/YAC),"H3K9me3 ChIP peak chrX_6399655_6400248, Shroom4, Promoter (<=1kb)",-2.29
same,Fold(YACEi/YAC),"H3K9me3 ChIP peak chrX_7571434_7571820, Flicr, Promoter (1-2kb)",-4.01
same,Fold(YACEi/YAC),"H3K9me3 ChIP peak chrX_10118097_10118554, Srpx, Promoter (<=1kb)",-2.46
same,Fold(YACEi/YAC),"H3K9me3 ChIP peak chrX_10714202_10714657, Mid1ip1, Promoter (2-3kb)",-2.68
